Test results published in ChEMBL document CHEMBL2440027, “Further SAR studies on bicyclic basic merbarone analogues as potent antiproliferative agents” (Bioorg Med Chem, 2013).

Assays:
Format in all cases: functional
[1] = test system: M14; experiment: Growth inhibition of human M14 cells assessed as cell growth at 10 uM after 48 hrs by sulforhodamine B assay relative to control; conditions: M14, 48 h, read-out: Activity
[2] = test system: COLO 205; experiment: Growth inhibition of human COLO205 cells after 48 hrs by sulforhodamine B assay; conditions: COLO 205, 48 h; for CC50: read-out: LC50 (the source's name)
[3] = test system: MOLT-4; experiment: Growth inhibition of human MOLT4 cells assessed as cell growth at 10 uM after 48 hrs by sulforhodamine B assay relative to control; conditions: MOLT-4, 48 h, read-out: Activity
[4] = Growth inhibition of human NCI-ADR-RES cells after 48 hrs by sulforhodamine B assay; conditions: for CC50: read-out: LC50 (the source's name)
[5] = test system: RXF 393; experiment: Growth inhibition of human RXF393 cells after 48 hrs by sulforhodamine B assay; conditions: RXF 393, 48 h; for CC50: read-out: LC50 (the source's name)
[6] = test system: KM12; experiment: Growth inhibition of human KM12 cells assessed as cell growth at 10 uM after 48 hrs by sulforhodamine B assay relative to control; conditions: KM12, 48 h, read-out: Activity
[7] = test system: KM12; experiment: Growth inhibition of human KM12 cells after 48 hrs by sulforhodamine B assay; conditions: KM12, 48 h
[8] = test system: MDA-MB-231; experiment: Growth inhibition of human MDA-MB-231 cells assessed as cell growth at 10 uM after 48 hrs by sulforhodamine B assay relative to control; conditions: MDA-MB-231, 48 h, read-out: Activity
[9] = test system: MDA-MB-231; experiment: Growth inhibition of human MDA-MB-231 cells after 48 hrs by sulforhodamine B assay; conditions: MDA-MB-231, 48 h; for CC50: read-out: LC50 (the source's name)
[10] = test system: MDA-MB-435; experiment: Growth inhibition of human MDA-MB-435 cells assessed as cell growth at 10 uM after 48 hrs by sulforhodamine B assay relative to control; conditions: MDA-MB-435, 48 h, read-out: Activity
[11] = test system: SF-539; experiment: Growth inhibition of human SF539 cells assessed as cell growth at 10 uM after 48 hrs by sulforhodamine B assay relative to control; conditions: SF-539, 48 h, read-out: Activity
[12] = test system: MDA-MB-468; experiment: Growth inhibition of human MDA-MB-468 cells after 48 hrs by sulforhodamine B assay; conditions: MDA-MB-468, 48 h
[13] = test system: OVCAR-3; experiment: Growth inhibition of human OVCAR3 cells after 48 hrs by sulforhodamine B assay; conditions: OVCAR-3, 48 h
[14] = test system: OVCAR-4; experiment: Growth inhibition of human OVCAR4 cells assessed as cell growth at 10 uM after 48 hrs by sulforhodamine B assay relative to control; conditions: OVCAR-4, 48 h, read-out: Activity
[15] = test system: U-251; experiment: Growth inhibition of human U251 cells assessed as cell growth at 10 uM after 48 hrs by sulforhodamine B assay relative to control; conditions: U-251, 48 h, read-out: Activity
[16] = test system: SNB-75; experiment: Growth inhibition of human SNB75 cells assessed as cell growth at 10 uM after 48 hrs by sulforhodamine B assay relative to control; conditions: SNB-75, 48 h, read-out: Activity
[17] = test system: HT-29; experiment: Growth inhibition of human HT-29 cells after 48 hrs by sulforhodamine B assay; conditions: HT-29, 48 h; for CC50: read-out: LC50 (the source's name)
[18] = test system: SN12C; experiment: Growth inhibition of human SN12C cells after 48 hrs by sulforhodamine B assay; conditions: for CC50: read-out: LC50 (the source's name)
[19] = Growth inhibition of human EKVX cells after 48 hrs by sulforhodamine B assay; conditions: for CC50: read-out: LC50 (the source's name)
[20] = test system: SR; experiment: Growth inhibition of human SR cells assessed as cell growth at 10 uM after 48 hrs by sulforhodamine B assay relative to control; conditions: read-out: Activity
[21] = test system: SN12C; experiment: Growth inhibition of human SN12C cells assessed as cell growth at 10 uM after 48 hrs by sulforhodamine B assay relative to control; conditions: read-out: Activity
[22] = test system: SK-MEL-5; experiment: Growth inhibition of human SK-MEL-5 cells assessed as cell growth at 10 uM after 48 hrs by sulforhodamine B assay relative to control; conditions: SK-MEL-5, 48 h, read-out: Activity
[23] = test system: MCF7; experiment: Growth inhibition of human MCF7 cells assessed as cell growth at 10 uM after 48 hrs by sulforhodamine B assay relative to control; conditions: MCF7, 48 h, read-out: Activity
[24] = test system: NCI-H460; experiment: Growth inhibition of human NCI-H460 cells after 48 hrs by sulforhodamine B assay; conditions: NCI-H460, 48 h
[25] = test system: SW-620; experiment: Growth inhibition of human SW620 cells after 48 hrs by sulforhodamine B assay; conditions: SW-620, 48 h
[26] = test system: U-251; experiment: Growth inhibition of human U251 cells after 48 hrs by sulforhodamine B assay; conditions: U-251, 48 h; for CC50: read-out: LC50 (the source's name)
[27] = test system: MDA-MB-435; experiment: Growth inhibition of human MDA-MB-435 cells after 48 hrs by sulforhodamine B assay; conditions: MDA-MB-435, 48 h; for CC50: read-out: LC50 (the source's name)
[28] = test system: SK-MEL-28; experiment: Growth inhibition of human SK-MEL-28 cells after 48 hrs by sulforhodamine B assay; conditions: SK-MEL-28, 48 h; for CC50: read-out: LC50 (the source's name)
[29] = test system: HL-60(TB); experiment: Growth inhibition of human HL-60(TB) cells after 48 hrs by sulforhodamine B assay; conditions: HL-60, 48 h
[30] = test system: SW-620; experiment: Growth inhibition of human SW620 cells assessed as cell growth at 10 uM after 48 hrs by sulforhodamine B assay relative to control; conditions: SW-620, 48 h, read-out: Activity
[31] = test system: NCI-H322M; experiment: Growth inhibition of human NCI-H322M cells after 48 hrs by sulforhodamine B assay; conditions: for CC50: read-out: LC50 (the source's name)
[32] = test system: BT-549; experiment: Growth inhibition of human BT549 cells assessed as cell growth at 10 uM after 48 hrs by sulforhodamine B assay relative to control; conditions: BT-549, 48 h, read-out: Activity
[33] = test system: 786-0; experiment: Growth inhibition of human 786-0 cells assessed as cell growth at 10 uM after 48 hrs by sulforhodamine B assay relative to control; conditions: 786-0, 48 h, read-out: Activity

CN(C)CCNc1nc2c(c(=N)n1-c1ccccc1)c(=S)n(-c1ccccc1)c(=S)n2-c1ccccc1
growth at 10 µM [1]: -84.4% | GI50 [2]: 1.6 µM | TGI [2]: 3.8 µM | CC50 [2]: 9.1 µM | growth at 10 µM [3]: 3.92% | GI50 [4]: 10.5 µM | TGI [4]: 31 µM | CC50 [4]: 91 µM | GI50 [5]: 1.2 µM | TGI [5]: 3.1 µM | CC50 [5]: 8.1 µM | growth at 10 µM [6]: 0.2% | GI50 [7]: 4.3 µM | LC50 [7]: 49.9 µM | TGI [7]: 14.6 µM | growth at 10 µM [8]: -13% | GI50 [9]: 1.8 µM | TGI [9]: 5.6 µM | CC50 [9]: 24.7 µM | growth at 10 µM [10]: -64.5% | growth at 10 µM [11]: -86.9% | GI50 [12]: 1.2 µM | LC50 (concentration killing 50% of cells) [12]: 6 µM | TGI [12]: 2.7 µM | GI50 [13]: 3 µM | LC50 [13]: 45.4 µM | TGI [13]: 12.5 µM | growth at 10 µM [14]: 41.7% | growth at 10 µM [15]: 2.1% | growth at 10 µM [16]: 79% | GI50 [17]: 1.4 µM | TGI [17]: 3.4 µM | CC50 [17]: 8.3 µM | GI50 [18]: 6.2 µM | TGI [18]: 19.9 µM | CC50 [18]: 48 µM | GI50 [19]: 12.1 µM | TGI [19]: 32.2 µM | CC50 [19]: 85.8 µM | growth at 10 µM [20]: 34.7% | growth at 10 µM [21]: 52.3% | growth at 10 µM [22]: -98.8% | growth at 10 µM [23]: 17.9% | GI50 [24]: 3.2 µM | LC50 [24]: 61.2 µM | TGI [24]: 11.8 µM | GI50 [25]: 2.1 µM | LC50 [25]: 18.8 µM | TGI [25]: 5.1 µM | GI50 [26]: 1.5 µM | TGI [26]: 3.4 µM | CC50 [26]: 7.8 µM | GI50 [27]: 1.9 µM | TGI [27]: 4.7 µM | CC50 [27]: 22.1 µM | GI50 [28]: 0.6 µM | TGI [28]: 2.1 µM | CC50 [28]: 5.8 µM | GI50 [29]: 1.5 µM | LC50 [29]: 7.1 µM | TGI [29]: 3.3 µM | growth at 10 µM [30]: -59.1% | GI50 [31]: 6.2 µM | TGI [31]: 20.7 µM | CC50 [31]: 53.8 µM | growth at 10 µM [32]: 4.45% | growth at 10 µM [33]: -83.5%

CCCCN(CCCC)CCCNc1nc2c(c(=N)n1-c1ccccc1)c(=S)n(-c1ccccc1)c(=S)n2-c1ccccc1
growth at 10 µM [1]: -86.3% | GI50 [2]: 0.2 µM | TGI [2]: 1.4 µM | CC50 [2]: 6 µM | growth at 10 µM [3]: -55.8% | GI50 [4]: 1.6 µM | TGI [4]: 3.3 µM | CC50 [4]: 8.1 µM | GI50 [5]: 0.2 µM | TGI [5]: 0.5 µM | CC50 [5]: 36.8 µM | growth at 10 µM [6]: -100% | GI50 [7]: 0.4 µM | LC50 [7]: 3.8 µM | TGI [7]: 1.5 µM | growth at 10 µM [8]: -89.1% | GI50 [9]: 0.3 µM | TGI [9]: 0.9 µM | CC50 [9]: 3 µM | growth at 10 µM [10]: -100% | growth at 10 µM [11]: -97.7% | GI50 [12]: 0.2 µM | LC50 (concentration killing 50% of cells) [12]: 0.6 µM | TGI [12]: 0.3 µM | GI50 [13]: 0.8 µM | LC50 [13]: 4.6 µM | TGI [13]: 2.1 µM | growth at 10 µM [14]: -82% | growth at 10 µM [15]: -100% | growth at 10 µM [16]: -94.2% | GI50 [17]: 0.2 µM | TGI [17]: 0.5 µM | CC50 [17]: 1.8 µM | GI50 [18]: 1.2 µM | TGI [18]: 2.4 µM | CC50 [18]: 4.9 µM | GI50 [19]: 0.4 µM | TGI [19]: 1.9 µM | CC50 [19]: 4.7 µM | growth at 10 µM [20]: -65.2% | growth at 10 µM [21]: -99.2% | growth at 10 µM [22]: -100% | growth at 10 µM [23]: -88% | GI50 [24]: 0.4 µM | LC50 [24]: 4 µM | TGI [24]: 1.6 µM | GI50 [25]: 0.4 µM | LC50 [25]: 3.7 µM | TGI [25]: 1.4 µM | GI50 [26]: 0.3 µM | TGI [26]: 1.2 µM | CC50 [26]: 3.5 µM | GI50 [27]: 0.2 µM | TGI [27]: 0.5 µM | CC50 [27]: 1.5 µM | GI50 [28]: 0.2 µM | TGI [28]: 0.3 µM | CC50 [28]: 0.7 µM | GI50 [29]: 0.2 µM | growth at 10 µM [30]: -100% | GI50 [31]: 1.4 µM | TGI [31]: 3.2 µM | CC50 [31]: 7.4 µM | growth at 10 µM [32]: -90.6% | growth at 10 µM [33]: -100%
